From publication PMC5983823, “Screening of Natural Product Derivatives Identifies Two Structurally Related Flavonoids as Potent Quorum Sensing Inhibitors against Gram-Negative Bacteria” (International Journal of Molecular Sciences, 2018)

How the values were obtained:
P. aeruginosa PAO1 [1] = test: Swimming motility assay; type: cell-based; conditions: Pseudomonas aeruginosa, highest test concentration (400 µM)
Description: Assays were performed according to the protocols previously described in [30, 74] with some modifications. The swarming agar was prepared in MQ-water consisting of 0.3% (w/v) agar, 1% (w/v) peptone, 0.5% (w/v) yeast extract and 0.5% (w/v) sodium chloride, and the swimming agar similarly but without yeast extract. Compounds at a final concentration of 400 µM and 100 µM were pre-mixed with 5 mL of agar, and poured over solidified LB agar plates (10 mL/petri dish) as overlays. The plates were allowed to dry at 30 °C for three hours followed by point inoculation with 2 µL of P. aeruginosa PAO1 (~10^8 CFU/mL) and incubation at 37 °C for 18 h. Quercetin was used as a control. Diameters of the swarming and swimming zones were measured after the incubation periods.

E. coli K-12 = test: Crystal violet staining assay, transition from microcolonies to fully formed biofilms; type: cell-based; conditions: Escherichia coli, K12, E. coli K-12, mean ± SD, read-out: Inhibitory activity on the transition from microcolonies to fully formed biofilms
Description: (§1) Crystal violet-based biomass staining assay was performed to assess the effects of the compounds on the transition from microcolonies to fully formed as recently described in [26] with minor modifications. Briefly, diluted cultures of exponentially grown P. aeruginosa ATCC 9027, ATCC 15442 and PA01, and E. coli K-12 (10^6 CFU/mL) were added to the 96-microtiter well plates (200 µL per well) to form microcolonies for two hours (37 °C). At the end of this period, bacterial suspensions were removed, compounds at a final concentration of 400 µM and fresh LB media were added, and plates were incubated at 37 °C, with shaking (200 rpm) for additional 22 h. After the incubation period, media was discarded and the biofilms were washed once with sterile Milli-Q (MQ)-water. Biomass was fixed with methanol for 15 min followed by staining with 0.23% (v/v) crystal violet (Sigma-Aldrich, Munich, Germany) solution prepared in MQ-water (200 µL per well) for 5 min. Thereafter, wells were washed twice with MQ-water and 200 µL of 96% ethanol was added to the wells. Absorbance was measured at 595 nm using Varioskan Flash after 1 h.

P. aeruginosa ATCC 9027 = test: as above; type: cell-based; conditions: Pseudomonas aeruginosa, ATCC9027, P. aeruginosa ATCC 9027, mean ± SD, read-out: Inhibitory activity on the transition from microcolonies to fully formed biofilms
Description: as §1

P. aeruginosa ATCC 15422 = test: as above; type: cell-based; conditions: Pseudomonas aeruginosa, ATCC15422, read-out: Inhibitory activity on the transition from microcolonies to fully formed biofilms
Description: as §1

P. aeruginosa PAO1 [2] = test: as above; type: cell-based; conditions: Pseudomonas aeruginosa, P. aeruginosa PAO1, mean ± SD, read-out: Inhibitory activity on the transition from microcolonies to fully formed biofilms
Description: as §1

[3] = test system: Staphylococcus aureus biofilms; set-up: method as in PMID 24071942; conditions: cited from earlier work
C. violaceum = test system: C. violaceum; set-up: method as in PMID 27626397; conditions: cited from earlier work
[4] = test system: human lung (HL) epithelial cells; test: Cytotoxicity testing (CellTiter Glo); type: cell-based; conditions: 24 h exposure
Description: (§2) Human lung (HL) epithelial cells were grown in RPMI 1640 (Biowhittaker, Lonza, Viewers, Bornem, Belgium) supplemented with 10% inactivated fetal bovine serum (FBS), 2 mM L-glutamine and gentamycin 20 µg/mL, and mouse monocyte macrophage RAW 264.7 cells in DMEM medium supplemented with 10% FBS and 20 µg/mL gentamycin. Cells (3 × 10^5 cells/mL) were seeded into 96-microtiter well plates (Cellstar TC, Greiner Bio-One GmbH, Frickenhausen, Germany), 200 µL per well, and incubated at 37 °C in 5% CO2 24 h before exposure to the compounds. After the incubation, culture medium was discarded, the wells were washed with PBS, and the compound dilutions prepared in culture media were added as triplicates to a final volume of 200 µL. Usnic acid (200 µM, Sigma Aldrich, St. Louis, MO, USA) was included as positive control and DMSO (1%) as solvent control. Plates were incubated for additional 24 h. At the end of 24 h, media was removed, wells were washed twice with PBS and 100 µL of PBS was added. CellTiter Glo® reagent (Promega, Madison, WI, USA) was prepared according to manufacturer’s instructions, and 100 µL was added to the wells. The plates were shaken for two minutes and equilibrated at room temperature for 10 min prior to measuring the luminescence using Varioskan LUX multimode plate reader (Thermo Scientific, Vantaa, Finland). Inhibition of cell viability was calculated in relation to the untreated cells.

[5] = test system: mouse monocyte macrophage (RAW 264.7) cells; test: Cytotoxicity testing (CellTiter Glo); type: cell-based; conditions: 24 h exposure
Description: as §2

C. violaceum ATCC 31532 = test: Violacein extraction assay (QS-mediated violacein production); type: cell-based; conditions: Chromobacterium violaceum, ATCC31532, 40 µM, C. violaceum ATCC 31532, mean ± SD of three independent tests; read-out: Inhibition-% of violacein production

Row | Compound | inhibition at 400 µM (P. aeruginosa PAO1 [1]) [%] | inhibition at 400 µM (E. coli K-12) [%] | inhibition at 400 µM (P. aeruginosa ATCC 9027) [%] | inhibition at 400 µM (P. aeruginosa ATCC 15422) [%] | inhibition at 400 µM (P. aeruginosa PAO1 [2]) [%] | Anti-biofilm activity against S. aureus [3] | Anti-QS activity class in earlier screening (C. violaceum) | Inhibition-% of cell viability ([4]; 10 µM) | Inhibition-% of cell viability ([4]; 40 µM) | Inhibition-% of cell viability ([4]; 100 µM) | Inhibition-% of cell viability ([5]; 10 µM) | Inhibition-% of cell viability ([5]; 40 µM) | inhibition at 40 µM (C. violaceum ATCC 31532) [%] | Inhibition-% of cell viability ([5]; 100 µM)
1 | CCC(=O)Oc1c(-c2ccccc2Cl)oc2ccccc2c1=O [Compound 2117, 2-(2-chlorophenyl)-4-oxochromen-3-yl propanoate] | 28.1 | 51.3 ± 6.9 | 27.2 ± 6 | 11.2 ± 1.8 | 42.3 ± 12.4 | inactives | among the most active compounds | N.I. | N.I. | 11.2 ± 4.9% | N.I. | N.I. | > 90 | 
2 | CCCCCCCCCC(=O)Oc1c(-c2ccc(OC)cc2)oc2ccccc2c1=O [Compound 2896, 2-(4-methoxyphenyl)-4-oxochromen-3-yl decanoate] | 33.9 | 14.3 ± 10.1 | 22.5 ± 3.2 | 28.1 ± 15.1 | 11.6 ± 11.1 | inactives |  | N.I. | N.I. | did not display any effects on the cell viability and N.I. | N.I. | N.I. | 83.5 ± 1.4 | did not display any effects on the cell viability and N.I.
